Data taken from patent US5464617A, “β-lactam compounds” (Hoffmann-La Roche Inc., priority 1994, dated 1995).
Converted amounts (≈) assume the structure as drawn. Structures can show the parent of a compound that is named as a salt.

Assays:
E. coli 1346 = test: Antibacterial activity of the products per se, serial dilution method in liquid medium (Test E); type: cell-based; settings: product per se; for MIC E. coli 1346 (E): test E; for MIC E. coli 1346: Table 3, liquid medium
Text: The antibacterial activity of the products per se is illustrated on the basis of Table 3 hereinafter, the minimum inhibitory concentration […] in vitro against E. coli 1346 being determined using the serial dilution method in liquid medium: […]

[1] = tested on: Citrobacter freundii 1982; test: MIC in vitro of a 1:4 combination of ceftriaxone with a compound of formula I (Test D); type: cell-based; settings: for MIC C. freundii 1982 (D): test D; for MIC C. freundii 1982: Table 2
Method: The minimum inhibitory concentration in vitro ([…]) of a 1:4 combination of ceftriaxone with a compound of formula I against Citrobacter freundii 1982 was measured and compiled in Table 2 hereinafter.

[2] = Table 4, 1:4 combination of ceftriaxone with the compound
[3] = 1:4 combination of ceftriaxone with the compound

**Q.** What does the source list for `Cn1nnnc1CSCC1=C(C(=O)O)N2C(=O)[C@H]3NC[C@@H](S1)[C@H]32` [Example 43, (1aS,3aR,6bS)-5-(1-Methyl-1H-tetrazol-5-ylmethylsulphanylmethyl)-1-oxo-4-thia-1,1a,2,3,3a,6 b-hexahydro-2,6a-diazacyclobut-[cd]indene-6-carboxylic acid sodium salt]?
**A.** MIC E. coli 1346 (E) (E. coli 1346; Table 4): > 32 mg/L; MIC C. freundii 1982 (D) [1, 2]: 4 mg/L

**Q.** For `O=C(NCC(F)(F)F)OCC1=C(C(=O)O)N2C(=O)[C@H]3NC[C@@H](C1)[C@H]32` [Example 91, (1aS,3aR,6bR)-1-Oxo-5-(2,2,2-trifluoroethylcarbamoyloxymethyl)-1a,2,3,3a,4,6b-hexahydro-1H-2,6a-diazacyclobut[cd]indene-6-carboxylic acid trifluoroacetate], which “MIC E. coli 1346 (E)” value (E. coli 1346; Table 4) is on record?
**A.** 4 mg/L

**Q.** And the “MIC C. freundii 1982 (D)” value [1, 2]?
**A.** 2 mg/L

**Q.** With `[N-]=[N+]=NCC1=C(C(=O)O)N2C(=O)[C@H]3NC[C@@H](C1)[C@H]32` [Example 81, (1aS,3aR,6bR)-5-Azidomethyl-1-oxo-1a,2,3,3a,4,6b-hexahydro-1H-2,6a-diazacyclobut[cd]indene-6-carboxylic acid trifluoroacetate] as the compound, how does the “MIC E. coli 1346 (E)” value (E. coli 1346; Table 4) read?
**A.** 1 mg/L

**Q.** And the “MIC C. freundii 1982 (D)” value [1, 2]?
**A.** 1 mg/L

**Q.** Which “MIC E. coli 1346” value (E. coli 1346) does the source give for `CO/N=C(\C(=O)N1C[C@H]2CC(Sc3nnnn3C)=C(C(=O)O)N3C(=O)[C@@H]1[C@@H]23)c1csc(N)n1` [Example 7, (Z)-(1aS,3aR,6bR)-2-[(2-Amino-thiazol-4-yl)-methoxyiminoacetyl]-1-oxo-5-(1-methyl-1H-tetrazol-5-ylsulphanyl)-1a,2,3,3a,4,6b-hexahydro-1H-2,6a-diazacyclobut[cd]indene-6-carboxylic acid sodium salt] here?
**A.** 64 mg/L

**Q.** And the “MIC C. freundii 1982” value [1, 3]?
**A.** 16 mg/L

**Q.** With `CSc1nnnn1CC1=C(C(=O)O)N2C(=O)[C@H]3NC[C@@H](S1)[C@H]32` [Example 44, (1aS,3aR,6bS)-5-(5-Methylsulphanyl-1H-tetrazol-1-ylmethyl)-1-oxo-1,1a,2,3,3a,6b-hexahydro-4-thia-2,6a-diazacyclobut[cd]indene-6-carboxylic acid sodium salt] as the compound, how does the “MIC E. coli 1346 (E)” value (E. coli 1346; Table 4) read?
**A.** 32 mg/L

**Q.** And the “MIC C. freundii 1982 (D)” value [1, 2]?
**A.** 4 mg/L

**Q.** `N#C/C=C\C1=C(C(=O)O)N2C(=O)[C@H]3NC[C@@H](C1)[C@H]32` [48(a), (Z)-(1aS,3aR,6bR)-5-(2-Cyanovinyl)-1-oxo-1a,2,3,3a,4,6b-hexahydro-1H-2,6a-diazacyclobut[cd]indene-6-carboxylic acid trifluoroacetate] was tested. Which “MIC E. coli 1346 (E)” value (E. coli 1346; Table 4) did it give?
**A.** 16 mg/L

**Q.** What about the “MIC C. freundii 1982 (D)” value [1, 2] of the same compound?
**A.** 4 mg/L

**Q.** `NC(=O)OCC1=C(C(=O)O)N2C(=O)[C@@H]3[C@H]2[C@H](C1)CN3C(=O)CSc1ccncc1` [58(g), (1aS,3aR,6bR)-5-Carbamoyloxymethyl-1-oxo-2-pyridin-4-ylsulphanylacetyl-1a,2,3,3a,4,6b-hexahydro-1H-2,6a-diazacyclobut[cd]indene-6-carboxylic acid sodium salt] was tested. Which “MIC E. coli 1346 (E)” value (E. coli 1346; Table 4) did it give?
**A.** 8 mg/L

**Q.** And the “MIC C. freundii 1982 (D)” value [1, 2]?
**A.** 0.25 mg/L

**Q.** `CC(=O)OCC1=C(C(=O)O)N2C(=O)[C@@H]3[C@H]2[C@H](C1)CN3C(C)=O` [25(c), (1aS,3aR,6bR)-5-Acetoxymethyl-2-acetyl-1-oxo-1a,2,3,3a,4,6b-hexahydro-1H-2,6a-diazacyclobut[cd]indene-6-carboxylic acid sodium salt] was tested. Which “MIC E. coli 1346 (E)” value (E. coli 1346; Table 4) did it give?
**A.** 4 mg/L

**Q.** What about the “MIC C. freundii 1982 (D)” value [1, 2] of the same compound?
**A.** 1 mg/L

**Q.** For `CS(=O)(=O)N1C[C@H]2CC(COC(N)=O)=C(C(=O)O)N3C(=O)[C@@H]1[C@@H]23` [58(c), (1aS,3aR,6bR)-5-Carbamoyloxymethyl-2-methylsulphonyl-1-oxo-1a,2,3,3a,4,6b-hexahydro-1H-2,6a-diazacyclobut[cd]indene-6-carboxylic acid sodium salt], which “MIC E. coli 1346 (E)” value (E. coli 1346; Table 4) is on record?
**A.** 0.5 mg/L

**Q.** And the “MIC C. freundii 1982 (D)” value [1, 2]?
**A.** 0.5 mg/L

**Q.** Which “MIC E. coli 1346 (E)” value (E. coli 1346; Table 4) does the source give for `CC(=O)N1C[C@H]2CC(COC(N)=O)=C(C(=O)O)N3C(=O)[C@@H]1[C@@H]23` [58(a), (1aS,3aR,6bR)-2-Acetyl-5-carbamoyloxymethyl-1-oxo-1a,2,3,3a,4,6b-hexahydro-1H-2,6a-diazacyclobut[cd]indene-6-carboxylic acid sodium salt] here?
**A.** > 32 mg/L

**Q.** And the “MIC C. freundii 1982 (D)” value [1, 2]?
**A.** 2 mg/L

**Q.** Which “MIC E. coli 1346 (E)” value (E. coli 1346; Table 4) does the source give for `NC(=O)Cn1nnnc1SCC1=C(C(=O)O)N2C(=O)[C@@H]3[C@H]2[C@H](C1)CN3C(=O)C(F)(F)F` [70(b), (1aS,3aR,6bR)-5-(1-Carbamoylmethyl-1H-tetrazol-5-ylsulphanylmethyl)-2-trifluoroacetyl-1-oxo-1a,2,3,3a,4,6b-hexahydro-1H-2,6a-diazacyclobut[cd]indene-6-carboxylic acid sodium salt] here?
**A.** 1 mg/L

**Q.** And the “MIC C. freundii 1982 (D)” value [1, 2]?
**A.** 0.5 mg/L

**Q.** What does the source list for `Cc1nnc(SCC2=C(C(=O)O)N3C(=O)[C@@H]4[C@H]3[C@H](C2)CN4C(=O)CSc2nnc(N)s2)s1` [65(f), (1aS,3aR,6bR)-2-(2-Amino-1,3,4-thiadiazol-5-ylsulphanylacetyl)-5-(5-methyl-1,3,4-thiadiazol-2-ylsulphanylmethyl)-1-oxo-1a,2,3,3a,4,6b-hexahydro-1H-2,6a-diazacyclobut[cd]indene-6-carboxylic acid sodium salt]?
**A.** MIC E. coli 1346 (E) (E. coli 1346; Table 4): 2 mg/L; MIC C. freundii 1982 (D) [1, 2]: 0.5 mg/L

**Q.** Which results are given for `NC(=O)OCC1=C(C(=O)O)N2C(=O)[C@@H]3[C@H]2[C@H](C1)CN3C(=O)Nc1ccc(O)cc1` [27(a), (1aS,3aR,6bR)-5-Carbamoyloxymethyl-2-(4-hydroxyphenylcarbamoyl)-1-oxo-1a,2,3,3a,4,6b-hexahydro-1H-2,6a-diazacyclobut[cd]indene-6-carboxylic add sodium salt]?
**A.** MIC E. coli 1346 (E) (E. coli 1346; Table 5, particularly preferred products): > 32 mg/L; MIC C. freundii 1982 (D) ([1]; Table 5, particularly preferred products, 1:4 combination with ceftriaxone): ≤ 0.06 mg/L

**Q.** With `Cc1nnc(SCC2=C(C(=O)O)N3C(=O)[C@H]4NC[C@@H](O2)[C@H]43)s1` [Example 29(a), (1aS,3aR,6bS)-5-(5-Methyl-1,3,4-thiadiazol-2-ylsulphanylmethyl)-1-oxo-1,1a,2,3,3a,6b-hexahydro-4-oxa-2,6a-diazacyclobut[cd]indene-6-carboxylic acid sodium salt] as the compound, how does the “MIC E. coli 1346 (E)” value (E. coli 1346; Table 4) read?
**A.** 1 mg/L

**Q.** What about the “MIC C. freundii 1982 (D)” value [1, 2] of the same compound?
**A.** 1 mg/L

**Q.** What does the source list for `NC(=O)CNC(=O)Cn1nnnc1SCC1=C(C(=O)O)N2C(=O)[C@H]3NC[C@@H](O1)[C@H]32` [29(i), (1aS,3aR,6bS)-5-(1-(Carbamoylmethyl-carbamoylmethyl)-1H-tetrazol-5-ylsulphanylmethyl)-1-oxo-1,1a,2,3,3a,6b-hexahydro-4-oxa-2,6a-diazacyclobut[cd]indene-6-carboxylic acid]?
**A.** MIC E. coli 1346 (E) (E. coli 1346; Table 4): 8 mg/L (≈ 18.9 µM); MIC C. freundii 1982 (D) [1, 2]: 8 mg/L

**Q.** For `O=C(Cn1nnnc1SCC1=C(C(=O)O)N2C(=O)[C@H]3NC[C@@H](C1)[C@H]32)Nc1ccc(O)cc1` [Example 77, (1aS,3aR,6bR)-5-[1-(4-Hydroxy-phenylcarbamoylmethyl)-1H-tetrazol-5-ylsulphanylmethyl]-1-oxo-1a,2,3,3a,4,6b-hexahydro-1H-2,6a-diazacyclobut[cd]indene-6-carboxylic acid trifluoroacetate], which “MIC E. coli 1346 (E)” value (E. coli 1346; Table 4) is on record?
**A.** 2 mg/L

**Q.** And the “MIC C. freundii 1982 (D)” value [1, 2]?
**A.** 2 mg/L

**Q.** What does the source list for `CS(=O)(=O)OC1=C(C(=O)O)N2C(=O)[C@@H]3[C@H]2[C@H](C1)CN3C(=O)NCc1ccc(S(N)(=O)=O)cc1` [9(h), (1aS,3aR,6bR)-5-Methylsulphonyloxy-1-oxo-2-(4-sulphamoylbenzylcarbamoyl)-1a,2,3,3a,4,6b-hexahydro-1H-2,6a-diazacyclobut[cd]indene-6-carboxylic acid sodium salt]?
**A.** MIC E. coli 1346 (E. coli 1346): 32 mg/L; MIC C. freundii 1982 [1, 3]: 0.5 mg/L
